Reference: ChEMBL document CHEMBL1201862, “PubChem BioAssay data set” (2004)
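A five-concentration, 48-hour dose response in 96-well plates underlies each endpoint, interpolated linearly between surrounding concentrations. Here, GI50 denotes the concentration required for 50% inhibition of growth.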 Activity calls are given as the source filed them. Rule as the data show it: active = GI50 up to about 1.1 µM and inactive = higher.

Legend:
Test in all cases: growth of human tumour cells (NCI), 48 h
SK-OV-3 = test system: SK-OV-3
RXF 393 = test system: RXF 393
M14 = test system: M14
UO-31 = test system: UO-31
Malme-3M = test system: Malme-3M
SF-539 = test system: SF-539
SF-295 = test system: SF-295
OVCAR-4 = test system: OVCAR-4
A498 = test system: A498
NCI-H23 = test system: NCI-H23
EKVX = test system: EKVX
SK-MEL-2 = test system: SK-MEL-2
RPMI-8226 = test system: RPMI-8226
KM12 = test system: KM12

## O=C(N/C(=C\c1ccc(/C=C(\NC(=O)c2ccccc2)c2nc3cc([N+](=O)[O-])ccc3[nH]2)cc1)c1nc2cc([N+](=O)[O-])ccc2[nH]1)c1ccccc1
SK-OV-3
  GI50: > 100 µM (inactive)
RXF 393
  GI50: 24 µM (inactive)
M14
  GI50: 30.8 µM (inactive)
UO-31
  GI50: 46.7 µM (inactive)
Malme-3M
  GI50: > 100 µM (inactive)
SF-539
  GI50: 80.4 µM (inactive)
SF-295
  GI50: 43.1 µM (inactive)
OVCAR-4
  GI50: 39.5 µM (inactive)
A498
  GI50: 26 µM (inactive)
NCI-H23
  GI50: 25.4 µM (inactive)
EKVX
  GI50: 32.9 µM (inactive)
SK-MEL-2
  GI50: 14.9 µM (inactive)
RPMI-8226
  GI50: 12 µM (inactive)

## c1ccc(P(=Nc2ccccc2N=P(c2ccccc2)(c2ccccc2)c2ccccc2)(c2ccccc2)c2ccccc2)cc1
KM12
  GI50: 0.834 µM (active)
SK-OV-3
  GI50: 0.327 µM (active)
RXF 393
  GI50: 1.05 µM (active)
M14
  GI50: 1.44 µM (inactive)
UO-31
  GI50: 2.31 µM (inactive)
Malme-3M
  GI50: 0.256 µM (active)
SF-539
  GI50: 1.16 µM (inactive)
SF-295
  GI50: 1.11 µM (active)
OVCAR-4
  GI50: 1.25 µM (inactive)
A498
  GI50: 0.986 µM (active)
NCI-H23
  GI50: 0.337 µM (active)
EKVX
  GI50: 1.21 µM (inactive)
RPMI-8226
  GI50: 1.74 µM (inactive)

## CCc1cccc(C(C)C)c1N1C(=O)C(=O)C(c2nc3ccccc3s2)C(=O)C1=O
KM12
  GI50: > 44.7 µM (inactive)
SK-OV-3
  GI50: > 50 µM (inactive)
RXF 393
  GI50: > 50 µM (inactive)
M14
  GI50: > 44.4 µM (inactive)
UO-31
  GI50: > 50 µM (inactive)
Malme-3M
  GI50: > 26.2 µM (inactive)
SF-539
  GI50: > 50 µM (inactive)
SF-295
  GI50: > 39.4 µM (inactive)
OVCAR-4
  GI50: > 50 µM (inactive)
A498
  GI50: > 50 µM (inactive)
NCI-H23
  GI50: 27.9 µM (inactive)
EKVX
  GI50: > 50 µM (inactive)
SK-MEL-2
  GI50: > 50 µM (inactive)
RPMI-8226
  GI50: 18.3 µM (inactive)

## O=C1CCC2(c3ccccc3)Nc3ccc(Cl)cc3N12 (centres undefined)
KM12
  GI50: > 100 µM (inactive)
SK-OV-3
  GI50: > 100 µM (inactive)
RXF 393
  GI50: > 100 µM (inactive)
M14
  GI50: > 100 µM (inactive)
UO-31
  GI50: > 100 µM (inactive)
Malme-3M
  GI50: > 100 µM (inactive)
SF-539
  GI50: > 100 µM (inactive)
SF-295
  GI50: > 100 µM (inactive)
OVCAR-4
  GI50: > 100 µM (inactive)
A498
  GI50: > 100 µM (inactive)
NCI-H23
  GI50: > 100 µM (inactive)
EKVX
  GI50: > 100 µM (inactive)
SK-MEL-2
  GI50: > 100 µM (inactive)
RPMI-8226
  GI50: > 100 µM (inactive)

## CSc1nsc(-c2ccccc2)[s+]1.[O-][Cl+3]([O-])([O-])[O-]
KM12
  GI50: > 100 µM (inactive)
SK-OV-3
  GI50: > 100 µM (inactive)
RXF 393
  GI50: > 100 µM (inactive)
M14
  GI50: > 100 µM (inactive)
UO-31
  GI50: > 100 µM (inactive)
Malme-3M
  GI50: > 100 µM (inactive)
SF-539
  GI50: > 100 µM (inactive)
OVCAR-4
  GI50: > 100 µM (inactive)
A498
  GI50: > 100 µM (inactive)
EKVX
  GI50: > 100 µM (inactive)
SK-MEL-2
  GI50: > 100 µM (inactive)
RPMI-8226
  GI50: > 100 µM (inactive)

## c1ccc2c(c1)nnn1c3cnccc3nc21
KM12
  GI50: 23.9 µM (inactive)
SK-OV-3
  GI50: 42.2 µM (inactive)
RXF 393
  GI50: 24.7 µM (inactive)
M14
  GI50: 91 µM (inactive)
UO-31
  GI50: 38.9 µM (inactive)
Malme-3M
  GI50: > 100 µM (inactive)
SF-539
  GI50: 35.4 µM (inactive)
SF-295
  GI50: 77.1 µM (inactive)
OVCAR-4
  GI50: 29 µM (inactive)
A498
  GI50: 94 µM (inactive)
NCI-H23
  GI50: 37.8 µM (inactive)
EKVX
  GI50: 51.6 µM (inactive)
SK-MEL-2
  GI50: 53.2 µM (inactive)
RPMI-8226
  GI50: 18.5 µM (inactive)

## Cc1cn2cc(-c3ccncc3)nc2s1
KM12
  GI50: > 100 µM (inactive)
SK-OV-3
  GI50: > 100 µM (inactive)
M14
  GI50: > 100 µM (inactive)
UO-31
  GI50: > 100 µM (inactive)
Malme-3M
  GI50: > 100 µM (inactive)
SF-539
  GI50: > 100 µM (inactive)
SF-295
  GI50: > 100 µM (inactive)
OVCAR-4
  GI50: > 82 µM (inactive)
A498
  GI50: > 100 µM (inactive)
NCI-H23
  GI50: > 100 µM (inactive)
EKVX
  GI50: > 100 µM (inactive)
SK-MEL-2
  GI50: > 100 µM (inactive)
RPMI-8226
  GI50: > 47.2 µM (inactive)

## O=C(N/C(=C\c1cc(Cl)ccc1Cl)c1nc2c(O)nc(S)nc2[nH]1)c1ccccc1
KM12
  GI50: 23.4 µM (inactive)
SK-OV-3
  GI50: 98.2 µM (inactive)
RXF 393
  GI50: 21.6 µM (inactive)
M14
  GI50: 22.9 µM (inactive)
UO-31
  GI50: 23.6 µM (inactive)
Malme-3M
  GI50: > 90.2 µM (inactive)
SF-539
  GI50: 27.7 µM (inactive)
SF-295
  GI50: 37.4 µM (inactive)
OVCAR-4
  GI50: 39.9 µM (inactive)
A498
  GI50: > 100 µM (inactive)
NCI-H23
  GI50: 25.8 µM (inactive)
EKVX
  GI50: 37.8 µM (inactive)
SK-MEL-2
  GI50: 46.1 µM (inactive)
RPMI-8226
  GI50: 12.6 µM (inactive)

## O=C(Nc1ccc(Sc2ccc(/N=N/c3c(O)c(S(=O)(=O)O)cc4cc(S(=O)(=O)O)ccc34)cc2)cc1)c1ccc(/N=N/c2c(O)c(S(=O)(=O)O)cc3cc(S(=O)(=O)O)ccc23)cc1
KM12
  GI50: 33 µM (inactive)
SK-OV-3
  GI50: > 100 µM (inactive)
RXF 393
  GI50: 33.1 µM (inactive)
M14
  GI50: 24.9 µM (inactive)
UO-31
  GI50: 35.6 µM (inactive)
Malme-3M
  GI50: 15.5 µM (inactive)
SF-539
  GI50: 45.8 µM (inactive)
SF-295
  GI50: 22.3 µM (inactive)
OVCAR-4
  GI50: 24.1 µM (inactive)
A498
  GI50: 45.2 µM (inactive)
NCI-H23
  GI50: 12.2 µM (inactive)
EKVX
  GI50: 17.7 µM (inactive)
SK-MEL-2
  GI50: 18.8 µM (inactive)
RPMI-8226
  GI50: 5.53 µM (inactive)

## CCOc1ccc(NC(=O)C(=O)CC(=O)c2sc(NNC(C)=O)nc2C)cc1
KM12
  GI50: > 100 µM (inactive)
SK-OV-3
  GI50: > 100 µM (inactive)
RXF 393
  GI50: > 100 µM (inactive)
M14
  GI50: > 100 µM (inactive)
UO-31
  GI50: > 100 µM (inactive)
SF-539
  GI50: > 100 µM (inactive)
SF-295
  GI50: > 100 µM (inactive)
OVCAR-4
  GI50: > 100 µM (inactive)
A498
  GI50: > 100 µM (inactive)
NCI-H23
  GI50: > 100 µM (inactive)
EKVX
  GI50: 40.9 µM (inactive)
SK-MEL-2
  GI50: > 100 µM (inactive)
RPMI-8226
  GI50: > 100 µM (inactive)
